{"source": "patent US20250268857A1", "about": "(priority 2020, published 2025)", "key": {"[1]": {"tested_on": "human influenza viruses and avian influenza viruses with different anti-HN types (H1N1, H1N1 subtype, and H7N7)", "assay_type": "cell-based, influenza virus", "details": "zinc gluconate concentration of 7,500 ppm"}, "[2]": {"tested_on": "feline coronavirus (Feline Enteric Coronavirus, WSU 79-1683)", "assay": "Coronavirus inactivation test (titration on Felis catus whole fetus cells)", "assay_type": "cell-based", "details": "7500 ppm aqueous solution of zinc gluconate; in 30 minutes", "experimental": "First, 0.9 ml of 7500 ppm of aqueous solution of zinc gluconate (phosphate buffered saline (PBS) was used for comparison) used as a sample solution and 0.1 ml of feline coronavirus solution (Feline Enteric Coronavirus, WSU 79-1683, 1.3× 10^5 EID50/0.1 ml) were mixed in a vortex mixer and reacted at room temperature (20° C.) for 30 minutes. The mixture solution of the sample and the virus was diluted to 100 times with a 5-times diluted Soybean-Casein Digest Broth with Lecithin & Polysorbate 80 (SCDLP) to stop the reaction and obtain a sample for measuring virus infection values.\nFelis catus whole fetus cells used for testing were pre-seeded in 96-well plates and cultured in a CO2 incubator for 4 days. After this, the culture supernatant was removed and replaced with Dulbecco's Modified Eagle's medium containing 1% fetal bovine serum (available from Nissui Pharmaceutical Co., Ltd.).\nThe wells from which the culture medium had been removed were inoculated with 25 μl of the above sample for measuring virus infection values or with a 10-fold dilution of this in PBS, and the virus was allowed to infect the cells at 37° C. for 1 hour. […] After incubation, the cytopathic effect caused by virus growth was observed under a microscope, and the virus infection titer was calculated by the Reed and Muench method."}, "[3]": {"tested_on": "feline caliciviruses", "assay_type": "cell-based, feline calicivirus"}, "[4]": {"assay_type": "physicochemical", "details": "samples with 2,000 to 30,000 ppm zinc gluconate", "description": "Zinc oxide nanoparticles having a diameter of 50 to 70 nm were dispersed and stirred into an aqueous solution at room temperature while the solution temperature was prevented from exceeding room temperature. The aqueous solution contained 50% of organic acid (gluconic acid in the embodiment) that partially lactonizes when dissolved in water."}, "[5]": {"tested_on": "influenza A virus (Kumamoto/Y5/67 (H2/N2))", "design": "species or system guinea pigs", "details": "guinea pig, in vivo"}, "[6]": {"tested_on": "avian influenza virus (A/whistling swan/Shimane/499/83 (H5N3))", "assay_type": "cell-based", "details": "reacted 10 minutes at room temperature (20° C.), sterile distilled water control 7.75"}}, "note": "Several values for one entry are separate records, joined by “and”; a condition that tells them apart may be missing. Identical values can stand only once. Like-named read-outs stand apart in the source and are kept apart here."}
{"substance": "zinc gluconate", "values": [{"measurement": "reduction in infectivity titer", "setting": "[1]", "result": "same reduction in infectivity titer"}, {"measurement": "titer reduced to (fraction)", "setting": "[2]", "result": "1/100"}, {"measurement": "reduction in infectivity titer", "setting": "[3]", "result": 94, "unit": "%"}, {"measurement": "pH", "setting": "[4]", "result": 3.6}, {"measurement": "Infection rate", "setting": "[5]", "result": "4/10 and 1/10 and 3/10"}, {"measurement": "Virus Infectivity Titer", "setting": "[6]; zinc gluconate 2,000 ppm", "result": 6.25, "unit": "log EID50/0.1 ml"}, {"measurement": "Virus Infectivity Titer", "setting": "[6]; zinc gluconate 3,750 ppm", "result": 4.5, "unit": "log EID50/0.1 ml"}, {"measurement": "Virus Infectivity Titer", "setting": "[6]; zinc gluconate 5,000 ppm", "result": 3.5, "unit": "log EID50/0.1 ml"}, {"measurement": "Virus Infectivity Titer", "setting": "[6]; zinc gluconate 7,500 ppm", "result": 2.25, "unit": "log EID50/0.1 ml"}, {"measurement": "Virus Infectivity Titer", "setting": "[6]; zinc gluconate 10,000 ppm", "result": 2.5, "unit": "log EID50/0.1 ml"}, {"measurement": "Virus Infectivity Titer", "setting": "[6]; zinc gluconate 30,000 ppm", "result": 5.75, "unit": "log EID50/0.1 ml"}]}
